Values of other authors in US6943197B2, “Topical administration of pharmacologically active bases in the treatment of inflammatory dermatoses” (priority 2002, dated 2005).
Read-outs that look alike come from different tables or passages of the source.

Key:
[1] = for pH of Aqueous Solution (alkalinity in words): no concentration, result in words
[2] = forms Ca(OH)2

Row | Structure (SMILES) | pH of Aqueous Solution ([1]; concentration not given) | further results
1 | N.N.O=P(O)(O)O [Ammonium phosphate, dibasic] | ˜8 | 
2 | [O]=[Ca] [Calcium oxide] |  | Solubility in water [2]: Soluble in water, Form
3 | [O]=[Mg] [Magnesium oxide] |  | pH of Aqueous Solution ([1]; saturated solution in water): 10.3
4 | O=C([O-])CC(O)(CC(=O)[O-])C(=O)[O-].[K+].[K+].[K+] [Potassium citrate] | ˜8.5 | 
5 | O=P([O-])([O-])O.[K+].[K+] [Potassium phosphate, dibasic] |  | pH of Aqueous Solution (alkalinity in words) [1]: Aqueous solution is slightly
6 | CC(=O)[O-].[Na+] [Sodium acetate, anhydrous] |  | pH of Aqueous Solution ([1]; 0.1 N): ˜8.9 (0.1 N)
7 | CC(=O)[O-].O.O.O.[Na+] [Sodium acetate, tribydrate] |  | pH of Aqueous Solution ([1]; 0.1 N): 8.9 (0.1 N)
8 | O=C([O-])[O-].[Na+].[Na+] [Sodium carbonate anhydrous] | ˜11.6 | 
9 | O=B[O-].[Na+] [Sodium metaborate] |  | pH of Aqueous Solution (alkalinity in words) [1]: Strongly alkaline
10 | O.O.O=P([O-])([O-])O.[Na+].[Na+] [Sodium phosphate, dibasic, dihydrate] | ˜9.5 | 
11 | O.O.O.O.O.O.O.O.O.O.O.O.O=P([O-])([O-])O.[Na+].[Na+] [Sodium phosphate, dibasic, dodecahydrate] | ˜9.5 | 
12 | O.O.O.O.O.O.O.O=P([O-])([O-])O.[Na+].[Na+] [Sodium phosphate, dibasic, heptahydrate] | ˜9.5 | 
13 | O=P([O-])([O-])O.[Na+].[Na+] [Sodium phosphate, dibasic] | ˜9.5 | 
14 | O.O.O.O.O.O.O.O.O.O.O.O.O=P([O-])([O-])[O-].[Na+].[Na+].[Na+] [Sodium phosphate, tribasic dodecahydrate] |  | pH of Aqueous Solution ([1]; 1.0% (1%)): 11.9 (1.0%)
